Test results published in PMC8128165, “Effect of amino acids and amines on the activity of the recombinant ι-carbonic anhydrase from the Gram-negative bacterium Burkholderia territorii” (Journal of Enzyme Inhibition and Medicinal Chemistry, 2021).

Test system: BteCAι
Experiment: stopped-flow CO2 hydration assay (activation)
Format: biochemical, Burkholderia territorii
Details: activation constant (not an association constant); CO2 substrate; 10 mM HEPES pH 7.5, 0.1 M NaClO4; 25 °C; activator
From the text: stopped-flow CO2 hydration assay (activation) on BteCAι

Structure (SMILES) | KA (μM)* / BteCAι^b [µM]
NC(=O)CC[C@H](N)C(=O)O [compound 24, L-Gln] | 5.8
N[C@H](CCC(=O)O)C(=O)O [compound 23, D-Glu] | 8.5
N[C@H](Cc1ccc(O)c(O)c1)C(=O)O [compound 6, D-DOPA] | 11.7
N[C@@H](Cc1ccc(O)c(O)c1)C(=O)O [compound 5, L-DOPA] | 4.3
CNC[C@H](O)c1ccc(O)c(O)c1 [compound 19, L-Adrenaline] | 9.7
NCCc1c[nH]c2ccc(O)cc12 [compound 14, Serotonin] | 13.3
N[C@H](Cc1c[nH]c2ccccc12)C(=O)O [compound 8, D-Trp] | 6.1
N[C@@H](Cc1ccc(O)cc1)C(=O)O [compound 9, L-Tyr] | 8.0
N[C@H](Cc1ccc(O)cc1)C(=O)O [compound 10, D-Tyr] | 7.3
N[C@@H](Cc1c[nH]c2ccccc12)C(=O)O [compound 7, L-Trp] | 10.2
N[C@H](Cc1ccccc1)C(=O)O [compound 4, D-Phe] | 9.4
N[C@H](Cc1c[nH]cn1)C(=O)O [compound 2, D-His] | 6.2
N[C@@H](CC(=O)O)C(=O)O [compound 21, L-Asp] | 8.4
NCCc1ccc(O)c(O)c1 [compound 13, Dopamine] | 8.7
N[C@@H](Cc1cnc[nH]1)C(=O)O [compound 1, L-His] | 8.6
NCCN1CCNCC1 [compound 17, 1-(2-Aminoethyl)-piperazine] | 3.9
NCCc1c[nH]cn1 [compound 12, Histamine] | 6.0
NCCN1CCOCC1 [compound 18, 4-(2-Aminoethyl)-morpholine] | 12.0
Nc1ccc(C[C@H](N)C(=O)O)cc1 [compound 11, 4-H2N-L-Phe] | 6.9
